Assay results: a melting point compilation (Tetko et al.; mined from patent text by program, amines drawn as free bases though some values may be those of a salt)

Row | SMILES | melting point [°C]
1 | CCOC(=O)c1cn(C2CC2)c2c(F)c(Br)c(F)c(F)c2c1=O | 187 to 189
2 | O=C(OCCCCCCCCCCCCCCCCOc1ccc(-c2cccc(F)c2F)cc1)C(CCCCCCO)CCCCCCO | 45.2 to 48.8
3 | COc1ccc(-c2ccc(=O)n(Cc3nc4cc(F)ccc4o3)c2)cc1 | 115
4 | Cc1ccc(C)c2c1OCc1ccccc1C2C(=O)Nc1c(C(C)C)cccc1C(C)C (centres undefined) | 149 to 150
5 | CCOC(=O)C(=O)Nc1ccc2c(c1)-n1cc(C(=O)OC)nc1CO2 | 186 to 188
6 | CCOC(=O)C1=C(C)NC(C)=C(C(=O)OCC)C1c1cccc(F)c1F | 161 to 162
7 | CC(=O)Nc1nn(C)c2c1sc1cc(C)ccc12 | 253 to 255
8 | CCn1cnc2c(Nc3cccc(Cl)c3)nc(N3CCCC(N)C3)nc21 (centres undefined) | 165
9 | Cc1cc(C)cc(NC(=O)Cc2ccc(OC3(C(=O)O)CCCC(C)C3)cc2)c1 (centres undefined) | 175 to 177
10 | O=C(O)C=CC=CCSc1ccccc1 | 108 to 110
11 | CC(C)n1c(=O)n(C)c(=O)c2c(SCCCO)n(C3Cc4ccccc4C3)cc21 | 123 to 125
12 | CC(=O)C1=CCC2C3CCC4CC=CCC4(C)C3C(=O)CC12C (centres undefined) | 176 to 177
13 | O=C(CCCN1CCOCC1)c1ccc2oc3ccc(C(=O)CCCN4CCOCC4)cc3c2c1 | 98 to 99
14 | CC(C)(C)OC(=O)N1CCC(Oc2ccc(-c3cn[nH]c(=O)c3)cc2)CC1 | 222 to 223
15 | COc1ccc(-c2cc(-c3c(-c4cccc(C)n4)nc4ccccn34)ccn2)cc1 | 174
16 | CC(=O)NCCNCc1ccc(-c2cc3ncnc(Nc4ccc5[nH]ccc5c4)c3s2)cc1 | 142 to 155
17 | O=c1[nH]c2c(cc1-c1nnc(C3CC3)o1)CN(Cc1ccccc1)CC2 | 212 to 214
18 | CCCNC(=O)Nc1cc(-c2c(-c3ccc(F)cc3)nc3cccnn23)ccn1 | 219 to 220
19 | CC(C)(O)Cn1c(CONC(=O)C2CC2)nc2c(N)nc3ccccc3c21 | 209 to 210
20 | CC(C)N1CC2(COc3ccc(N(C)C)cc3OC2)OC1=O (centres undefined) | 135 to 138
21 | Oc1ncnc2c(-c3ccc(Cc4ccc(Cl)cc4)cc3)cnn12 | 292 to 296
22 | CCCCc1nccn1Cc1c(F)cccc1Cl | 106 to 108
23 | O=C(O)C=CC1=CCCC([N+](=O)[O-])C1 (centres undefined) | 158 to 160
24 | Cc1oc(-c2ccccc2)nc1CCOc1ccc(CCc2nnn[nH]2)cc1 | 143 to 144

Row | SMILES | melting point [°C]
25 | COc1cc(COc2nn(-c3ccccc3)cc2/C=C/c2csc(C(C)C)n2)ccc1OCc1nc(-c2ccc(CC(=O)O)cc2)oc1C | 107 to 109
26 | Fc1ccc(-n2nccc2NC2=NCCN2)cc1 | 195 to 197
27 | O=C(O)C=C(c1ccccc1)c1ccccc1 | 162 to 164
28 | COCCN1C(=O)CCC(C)(C)c2ccc(Nc3ncc(Cl)c(Nc4c(F)cccc4OCC#N)n3)cc21 | 235 to 238
29 | CC(C)C[C@@H](CO)NC(=O)[C@H](Cc1c[nH]cn1)N(C(=O)[C@H](Cc1cccc2ccccc12)NC(=O)OCc1ccccc1)C(=O)[C@@H](N)Cc1cccc2ccccc12 | 199 to 200
30 | CCOC(=O)c1c(-c2cccc(Cl)c2)c2cc(C(=O)c3nc(-c4ccccc4)cs3)ccc2[nH]c1=O | 261
31 | CCOC(=O)C[C@H]1O[C@H](c2ccc(OCC)cc2OC)c2cc(Cl)ccc2N(CC(C)(C)C)C1=O (relative stereo) | 164 to 166
32 | Nc1ccc(C(=O)NC2CCN(c3ccccc3)C2)cc1 (centres undefined) | 213 to 216
33 | CCCOc1ccc(C(=O)CC(=O)C(C)(C)C)cc1OC | 55.5 to 56.7
34 | O=C(O)CCc1cc2cc(Cl)ccc2n1S(=O)(=O)c1ccc2ccccc2c1 | 160
35 | CCOc1ccc(C(CC(N)=O)N2C(=O)c3ccccc3C2=O)cc1 (centres undefined) | 191
36 | COCCON=C(C1=C(O)C(=O)N(c2ccc(C)nn2)C1c1ccc(OC(F)(F)F)cc1)c1ccc(C(C)C)cc1 (centres undefined) | 115 to 118
37 | CCC(C)COC(=O)c1ccc(-c2ccc(O)cc2)cc1 (centres undefined) | 112 to 113
38 | N#CC1=C(N)CCN(C(=O)c2ccccc2)C1 | 178 to 181
39 | Cc1cc(SCc2cnc(-c3ccc(C(F)(F)F)cc3)nc2C2CC2)ccc1OC(C)(C)C(=O)O | 129 to 131
40 | CN1CC2CC(=O)CC(C1)N2C | 72 to 73
41 | CC(C)C(C)(C)[Si](C)(C)Oc1ccc2c(c1)c(I)c1n2CCC1 | 97 to 98
42 | N#Cc1ccc2nc(-c3cccc(Br)c3)cn2c1 | 205 to 206
43 | CCn1nc(OC2COCCC2=O)c(-c2ccc(F)cc2)c1-c1ccc(S(C)(=O)=O)cc1 (centres undefined) | 181 to 182
44 | CSc1cc(C(C)=O)ccc1OCCCBr | 120 to 122
45 | COc1ccc(CN(C)CCCCc2ccc(NC(=O)c3cccc4c(=O)c5ccccc5[nH]c34)cc2)cc1OC | 140
46 | CCc1oc(C2CCCCC2)nc1CC(=O)O | 101 to 102
47 | CCCCCS(=O)(=O)NC(=O)CCc1ccc(OCC(=O)N(CC)CC)cc1Oc1ncc(C(F)(F)F)cc1Cl | 111 to 113
48 | CCOC(=O)C(C)(C)Oc1ccc(-c2ccc(CCNC(=O)c3cccc(OC)c3OC)cc2)cc1 | < 20

Row | SMILES | melting point [°C]
49 | CCc1cn(C2CC(I)C(CO)O2)c(=O)[nH]c1=O (centres undefined) | 162 to 164
50 | COc1cccc(-c2cn(C)cc(-c3cccc(C(F)(F)F)c3)c2=O)c1OC | 153 to 155
51 | CCC(C#N)(CC)c1nsc2ccc(-n3c(=O)cc(C(F)(F)F)n(C)c3=O)cc12 | 76 to 78
52 | O=C(C=Cc1cccc(S(=O)(=O)N2CCN(c3ccccc3F)CC2)c1)NO | 176
53 | CCOC(=O)c1c(CC)nn2c(-c3cccc(C(F)(F)F)c3)ccnc12 | 142 to 143
54 | CC(C)c1cccc(NC(=O)c2ccccc2C(F)(F)F)c1 | 87.5 to 88.5
55 | O=C1CCC(N2Cc3cc(CNC(=O)Nc4ccc(-c5ncc[nH]5)cc4)ccc3C2=O)C(=O)N1 (centres undefined) | 190 to 192
56 | Cc1ccnc(N2CCN(CCc3c(-c4ccc(O)cc4)n4c5c(cccc35)CCC4)CC2)c1 | 220
57 | CC(=O)Nc1cc(Cl)c([N+](=O)[O-])cc1NC(C)=O | 232
58 | Nc1nccc(-c2cccc(OCC(O)CN3CCN(c4cccc(Cl)c4)CC3)c2)n1 (centres undefined) | 140 to 141
59 | COc1cc2ncnc(Nc3cccc(Cl)c3F)c2cc1OC1CCN(C(=O)CO)CC1 | 196
60 | CC(C)C(C)CNC(=O)c1ccc2c(c1)N(C(C)CN1CCCC1)c1ccccc1S2 (centres undefined) | 138
61 | COc1cc2c(cc1OC)-c1c(-c3nc(-c4ccccc4)no3)c(-c3cc(C)c(O)c(C)c3)c(C)n1C(C)C2 (racemic) | 203 to 206
62 | CCCS(=O)(=O)N[C@H](C(=O)NCCc1ccc(OCC#Cc2ccc(Cl)cc2)c(OC)c1)C(C)C | 131 to 133
63 | CS(=O)(=O)CCS(=O)(=O)C1CCCCC1 | 89 to 91
64 | COC(=O)c1ccc(-c2ccc3cc(OCCCCC=C=O)c(C45CC6CC(CC(C6)C4)C5)cc3c2)cc1 | 209 to 210
65 | Cc1cc(C(=O)N(C)C)ncc1C(c1cc(F)ccc1F)S(=O)(=O)c1ccc(Cl)cc1 (centres undefined) | 207 to 208
66 | C=CCNc1c([N+](=O)[O-])ccc(Oc2ccc(C#N)cc2)c1Cl | 85 to 87
67 | O=C1C(=Cc2cccc(Cl)c2)SC(c2cccc(Cl)c2)N1CCCN1CCCCC1 (centres undefined) | 137 to 139
68 | C[C@H]1N[C@H](c2ccc(Br)cc2)[C@@H]2C(=O)N(Cc3ccccc3)C(=O)[C@@H]21 (racemic) | 170 to 172
69 | CCN1C(=O)C(N(CC(F)(F)C(F)(F)F)C(=O)C(C)C(N)=O)COc2ccccc21 (centres undefined) | 152
70 | CC(C)(C)C(=O)c1c[nH]c2ncc(C3=C(c4ccccc4)CCC3)nc12 | 207 to 209
71 | CCOC(=O)Cc1cc(Br)c(C(=O)c2ccc(Cl)cc2)n1C | 118 to 120
72 | Cc1ccc2c(c1)C(c1ccccc1)=NCc1nnc(CN(C)C)n1-2 | 154 to 156

Row | SMILES | melting point [°C]
73 | CC1=CCC(=Nc2cc([N+](=O)[O-])ccc2O)S1 | 202 to 204
74 | CCOP(=O)(OCC)C1(P(=O)(OCC)OCC)CC(C(=O)c2ccccc2)=NN1 | 134
75 | Cn1cc(-c2ccccc2)c(=O)c(S(=O)(=O)c2ccccc2)c1 | 218 to 220
76 | CCN1CCCC(CC)(c2ccc(Nc3ncc4ccc(-c5ccccc5N(C)S(C)(=O)=O)n4n3)cc2)C1 (centres undefined) | 93 to 101
77 | O=C(Cc1c(-c2ccccc2)c2cc3c(cc2oc1=O)C=CC3)Nc1ccc(F)cc1C(F)(F)F | 217 to 218
78 | CCc1cn(C[C@@H](C)O)c2ccc(F)cc12 | 65 to 67
79 | Cc1cc(SC2=C(O)CC(CCc3ccc(O)cc3)(C3CCCC3)OC2=O)c(C(C)(C)C)cc1N (centres undefined) | 133 to 135
80 | CC1CCC(C)(C)C2=C1CC(O)C(C)(O)C2 (centres undefined) | 121 to 123
81 | CSCc1cc2ccccc2n(-c2ccccc2)c1=O | 138 to 140
82 | CN(c1ccc(Br)cc1)S(=O)(=O)c1cccc(C(=O)Nc2ccc(F)cc2F)c1 | 119 to 120
83 | CCOC(=O)C(C(=O)OCC)c1ccc(NC(=O)c2cc3c(n(CC4CCCCC4)c2=O)CCCCCC3)c(C(F)(F)F)c1 | 160 to 162
84 | N#Cc1cc(C2CCCCC2)c(C(=O)O)cn1 | 225 to 230
85 | CN1C(=O)C(NC(=O)Nc2ccccc2)N(C)C1=O (centres undefined) | 188 to 189
86 | CC#COc1ccc2c(=O)cc(-c3ccccc3)oc2c1 | 199 to 200
87 | O=C1NC(=O)c2c1c(-c1ccccc1)cc1c2c2cc(O)ccc2n1CCCCCCBr | 214 to 216
88 | Cc1csc(-c2nc3c4ccccc4ccn3c2N)c1 | 152 to 155
89 | COC(=O)c1cccc(NC(=O)NS(=O)(=O)c2ccc(C)cc2)c1 | 178 to 180
90 | CC(C)(C)OC(=O)n1ccc2c3[nH]c(CO)nc3ccc21 | 152
91 | Oc1nc2ccc3c(c2nc1O)CCCC3 | > 300
92 | CCOC(=O)[C@H](Cc1ccc(Nc2nccc3ccncc23)cc1)NC1=C(Br)C(=O)C12CCCCC2 | 192 to 195
93 | OCCOc1nc(N2CCCCC2)c2nc(OCCO)nc(N3CCCCC3)c2n1 | 148 to 150
94 | CC(C(=O)NCc1ccc(C(C)(C)C)cc1)c1ccc(NS(C)(=O)=O)c(C(=O)NCc2ccccc2)c1 (centres undefined) | 79 to 81
